Measured values as given in publication PMC11858516, “Promiscuity in Polyphenol–Protein Interactions—Monitoring Protein Conformational Change upon Polyphenol–Protein Binding by Nano-Differential Fluorimetry (Nano-DSF)” (Molecules, 2025).

Columns and labels:
Type in all cases: binding
[1] = target: T1, bovine serum albumin (BSA) (Bos taurus, UniProt P02769); assay: nano-DSF F350/F330 titration, […] fit; settings: read-out: Ka [M^-1] (converted)
T1 construct: gene ALB

Casein = target: T2, Casein; assay: nano-DSF F350/F330 titration, […] fit; settings: 37 °C, phosphate buffer pH 6.8, 1:1 stoichiometry assumed
T2 construct: gene CSN1S1

Ovalbumin (OVA) = target: T3, Ovalbumin (OVA) (Gallus gallus, UniProt P01012); assay: nano-DSF F350/F330 ratio; settings: 1000 µM; phosphate buffer pH 6.8; 5 µM protein
T3 construct: gene SERPINB14
T3 sequence (P01012 2-386): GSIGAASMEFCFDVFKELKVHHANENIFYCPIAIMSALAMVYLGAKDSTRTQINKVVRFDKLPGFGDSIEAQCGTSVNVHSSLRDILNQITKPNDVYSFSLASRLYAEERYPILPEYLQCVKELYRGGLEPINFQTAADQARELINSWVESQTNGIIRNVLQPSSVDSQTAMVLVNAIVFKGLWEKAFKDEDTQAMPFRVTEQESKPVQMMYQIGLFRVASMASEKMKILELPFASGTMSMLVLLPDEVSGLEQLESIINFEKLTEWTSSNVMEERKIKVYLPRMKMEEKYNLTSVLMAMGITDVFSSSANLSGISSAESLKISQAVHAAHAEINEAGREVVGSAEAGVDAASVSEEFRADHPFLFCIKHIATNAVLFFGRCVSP
Source text: nano-DSF F350/F330 ratio on Ovalbumin (OVA)

[2] = target: T1, bovine serum albumin (BSA); assay: nano-DSF F350/F330 ratio; settings: 1000 µM; phosphate buffer pH 6.8; 5 µM protein
Source text: nano-DSF F350/F330 ratio on bovine serum albumin (BSA)

T1 sequence (P02769 25-607): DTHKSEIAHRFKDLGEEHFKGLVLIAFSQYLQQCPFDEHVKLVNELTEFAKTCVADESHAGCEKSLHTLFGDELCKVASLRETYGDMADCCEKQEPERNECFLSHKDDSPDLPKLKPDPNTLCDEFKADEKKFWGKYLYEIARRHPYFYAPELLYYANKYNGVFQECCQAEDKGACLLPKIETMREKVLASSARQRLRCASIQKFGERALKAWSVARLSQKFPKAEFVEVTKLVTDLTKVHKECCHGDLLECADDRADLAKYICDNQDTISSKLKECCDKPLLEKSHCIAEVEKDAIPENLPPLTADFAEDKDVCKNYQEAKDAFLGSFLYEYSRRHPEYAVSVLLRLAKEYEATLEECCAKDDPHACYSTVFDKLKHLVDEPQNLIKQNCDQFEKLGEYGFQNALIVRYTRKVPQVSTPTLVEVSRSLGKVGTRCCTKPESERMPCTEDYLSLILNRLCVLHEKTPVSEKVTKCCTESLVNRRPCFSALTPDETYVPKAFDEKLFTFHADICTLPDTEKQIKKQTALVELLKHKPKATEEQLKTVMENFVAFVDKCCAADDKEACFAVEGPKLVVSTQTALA

Kd [1]	Ka [M^-1] (Casein)	F350/F330 fluorescence ratio (Ovalbumin (OVA))	Structure (SMILES)	further results
118 µM			O=C(OC[C@H]1O[C@@H](OC(=O)c2cc(O)c(O)c(O)c2)[C@H](OC(=O)c2cc(O)c(O)c(O)c2)[C@@H](OC(=O)c2cc(O)c(O)c(O)c2)[C@@H]1OC(=O)c1cc(O)c(O)c(O)c1)c1cc(O)c(O)c(O)c1 [β-PGG]	
			Oc1cc(O)c2c(c1)O[C@H](c1ccc(O)c(O)c1)[C@H](O)C2 [Epicatechin]	Ka (Casein; µM column is the reciprocal of Ka, the M^-1 cell is misprinted (7 1616)): 139.6 µM
	21 450	1.02	O=C(/C=C/c1ccc(O)c(O)c1)O[C@@H]1C[C@](O)(C(=O)O)C[C@@H](O)[C@H]1O [5-CQA]	
		1.25	O=C(O[C@@H]1Cc2c(O)cc(O)cc2O[C@@H]1c1cc(O)c(O)c(O)c1)c1cc(O)c(O)c(O)c1 [EGCG]	F350/F330 fluorescence ratio [2]: 1.57
89.3 µM			O=C(OC[C@H]1O[C@H](OC(=O)c2cc(O)c(O)c(O)c2)[C@H](OC(=O)c2cc(O)c(O)c(O)c2)[C@@H](OC(=O)c2cc(O)c(O)c(O)c2)[C@@H]1OC(=O)c1cc(O)c(O)c(O)c1)c1cc(O)c(O)c(O)c1 [α-PGG]	
18 µM	41 271		O=C(/C=C/c1ccc(O)c(O)c1)O[C@H]1[C@H](O)C[C@](O)(C(=O)O)C[C@H]1OC(=O)/C=C/c1ccc(O)c(O)c1 [3,4-diCQA]	
